According to ChEMBL document CHEMBL1811792, “Ligand-based modelling followed by synthetic exploration unveil novel glycogen phosphorylase inhibitory leads” (Bioorg Med Chem, 2011):

Assays:
[1] = target: T1, Glycogen phosphorylase, muscle form (Oryctolagus cuniculus, UniProt P00489); assay: Inhibition of rabbit muscle glycogen phosphorylase […] assessed as release of phosphate from glucose-1- phosphate after 20 mins
T1 sequence (P00489 whole entry): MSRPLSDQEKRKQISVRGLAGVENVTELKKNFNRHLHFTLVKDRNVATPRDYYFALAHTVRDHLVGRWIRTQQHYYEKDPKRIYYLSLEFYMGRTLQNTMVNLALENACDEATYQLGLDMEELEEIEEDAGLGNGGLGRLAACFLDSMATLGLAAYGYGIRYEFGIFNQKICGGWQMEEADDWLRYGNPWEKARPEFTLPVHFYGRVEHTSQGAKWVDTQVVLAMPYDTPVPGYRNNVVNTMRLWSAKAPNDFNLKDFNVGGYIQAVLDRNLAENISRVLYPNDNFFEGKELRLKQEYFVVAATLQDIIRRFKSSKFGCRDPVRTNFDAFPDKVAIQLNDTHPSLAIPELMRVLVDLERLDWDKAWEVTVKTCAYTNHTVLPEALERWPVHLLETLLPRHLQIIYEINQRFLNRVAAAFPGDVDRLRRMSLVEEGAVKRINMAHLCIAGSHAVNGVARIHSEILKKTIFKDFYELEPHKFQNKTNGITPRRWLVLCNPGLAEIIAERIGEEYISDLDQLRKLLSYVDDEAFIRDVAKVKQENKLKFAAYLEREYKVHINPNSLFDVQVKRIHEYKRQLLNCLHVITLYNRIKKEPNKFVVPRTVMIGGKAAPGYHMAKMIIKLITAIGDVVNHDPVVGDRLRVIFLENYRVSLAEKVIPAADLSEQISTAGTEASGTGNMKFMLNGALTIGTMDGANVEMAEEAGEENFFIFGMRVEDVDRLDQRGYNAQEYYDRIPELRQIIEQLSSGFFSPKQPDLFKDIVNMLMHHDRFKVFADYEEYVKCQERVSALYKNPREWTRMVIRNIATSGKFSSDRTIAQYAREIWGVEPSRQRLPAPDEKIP

[2] = target: T2, Glycogen phosphorylase, muscle form (Oryctolagus cuniculus) (UniProt P00489); assay: Inhibition of rabbit muscle glycogen phosphorylase […] assessed as release of phosphate from glucose-1- phosphate at 10 uM after 20 mins
T2 sequence (whole entry): T1 sequence (P00489 whole entry)

## Cc1cc(S(=O)(=O)Nc2nc3ccccc3[nH]2)c(S)cc1Cl
[1]
  IC50: 6.9 µM
[2]
  inhibition: 45%

## Cc1cc(S(=O)(=O)Nc2nnc3c4ccccc4ccn23)c(S)cc1Cl
[1]
  IC50: 7.5 µM
[2]
  inhibition: 42%

## Cc1ccccc1NC(=O)C(=O)Nc1ccccc1C
[1]
  IC50: 5.4 µM
[2]
  inhibition: 55%

## COC(=O)c1ccccc1NC(=O)Nc1cccc(OC)c1
[2]
  inhibition: 12%

## O=C(CC(=O)NCc1ccccc1)NCc1ccccc1
[2]
  inhibition: 1%

## COc1ccc2cc(-c3ccc(OC)c(OC)c3)c(=O)oc2c1
[2]
  inhibition: 24%

## COc1ccccc1NC(=O)C(=O)Nc1ccccn1
[2]
  inhibition: 5%

## Cc1ccccc1NC(=O)CC(=O)Nc1ccccc1C
[2]
  inhibition: 2%

## O=C1Oc2ccccc2N/C1=C/C(=O)c1ccc(Cl)cc1
[2]
  inhibition: 26%

## Cc1cccc(NC(=O)CC(=O)Nc2cccc(C)c2)c1
[2]
  inhibition: 4%

## CSc1ccc(NC(=O)C2CCCCC2C(=O)O)cc1 (stereo unspecified)
[2]
  inhibition: 17%

## CN(C)c1ccc(/C=C/C(=O)c2cc(Cl)ccc2O)cc1
[2]
  inhibition: 25%

## CSc1ccc(NC(=O)Nc2ccccc2C(N)=O)cc1
[2]
  inhibition: 17%

## CCOC(=O)C(=O)CC(=O)c1ccc(OC)cc1
[2]
  inhibition: 34%

## CCOc1ccc(NC(=O)c2cc3ccccc3cc2O)cc1
[2]
  inhibition: 22%

## Cc1ccc(S(=O)(=O)CC2CCc3ccccc3C2=O)cc1 (stereo unspecified)
[1]
  IC50: 16.5 µM
[2]
  inhibition: 49%

## COC(=O)c1ccccc1NC(=O)Nc1ccc(SC)cc1
[2]
  inhibition: 7%

## CSc1cccc(NC(=O)Nc2ccccc2C(N)=O)c1
[2]
  inhibition: 36%

## C/C=C/c1cc(OC)c2c(c1)[C@H](C)[C@@H](c1ccc(O)c(OC)c1)O2
[2]
  inhibition: 8%

## Cc1cc(S(=O)(=O)Nc2nnc3c(C(F)(F)F)cc(Cl)cn23)c(S)cc1Cl
[1]
  IC50: 5.9 µM
[2]
  inhibition: 53%

## NC(=O)c1ccccc1NC(=O)COc1ccc(Cl)cc1
[2]
  inhibition: 38%
